Entries after “also recorded” stand apart in the source; their conditions may differ.

Assay [1] deals with protein aggregates in eukaryotic cells. Nature of the assay: depolymerization function in eukaryotic cells. As to conditions: FIGS. 7-16. Type of assay: cell-based. An excerpt:
The inventors then selected three peptides PLPR3 (SEQ ID NO: 6), ATXN8OS (SEQ ID NO: 7), and GRWD1 (SEQ ID NO: 8) to verify the depolymerization function in eukaryotic cells with the experimental scheme shown in FIG. 6.

The conditions of assay [2]: previously identified, PCT/CN2021/111683; cited from earlier work.
Another assay deals with G3BP1 aggregates (Homo sapiens, UniProt Q13283). As to the kind of experiment: in vitro dissolving of protein aggregates by purified peptides. Type of assay: biochemical. As to the method: Given that the charged amino acid residues have the highest percentage in Champ-E, the inventors first tested the function of the charged amino acid residues in dissolving protein aggregates. The inventors generated a series variant of Champ-E with mutation of aspartic acid residues and tested their capability of dissolving protein aggregates in vitro and in cells. The variant peptides were expressed in E. coli and then purified (see FIG. 3). The purified variant peptides were then added to in vitro protein solution that is capable of forming protein aggregates.
G3BP1 aggregates, sequence (Q13283 whole entry): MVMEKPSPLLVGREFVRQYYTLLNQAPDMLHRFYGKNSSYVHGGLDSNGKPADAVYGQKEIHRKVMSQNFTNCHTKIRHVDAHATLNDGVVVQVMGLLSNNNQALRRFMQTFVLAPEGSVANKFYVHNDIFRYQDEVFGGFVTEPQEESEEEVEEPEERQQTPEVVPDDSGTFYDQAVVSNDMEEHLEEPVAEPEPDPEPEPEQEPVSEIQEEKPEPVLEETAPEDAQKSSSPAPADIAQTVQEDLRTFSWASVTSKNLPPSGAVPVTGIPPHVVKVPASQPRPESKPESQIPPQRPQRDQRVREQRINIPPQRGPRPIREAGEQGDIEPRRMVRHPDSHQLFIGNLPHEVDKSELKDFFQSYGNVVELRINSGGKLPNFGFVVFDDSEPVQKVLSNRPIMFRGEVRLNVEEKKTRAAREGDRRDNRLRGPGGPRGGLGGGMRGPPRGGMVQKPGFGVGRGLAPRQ

In the case of “ATXN8OS: SEQ ID NO: 7, PCPGAPCCSLVATGSRVPFSGLKEEEEEDGEDDEEEEEEG; fragment of human protein”, in assay [1], the “depolymerization effect in eukaryotic cells” value (from here on “depolymerization effect”) is listed as “have depolymerization effect”.
With “C19L2: SEQ ID NO: 10, LPDVNERIEQFSQEHSVKKKKKKDKHSKKAKKEKKKKSKK; few or no P/G”, the “depolymerization effect” value in assay [1] was “have depolymerization effect”.
Consider “CACNA1F: SEQ ID NO: 12, DMEEEEEEEEEEEEEEEEEGAGGVELLQEVVPKEKVVPIP; few or no polar residues”, for which the “depolymerization effect” value in assay [1] was “almost no depolymerization effect”.
With “CHD3(E2K): SEQ ID NO: 14, RKKKKKKTKRRKKGKGDGGQKQVKQKSSATLLLTWGLKDV; CHD3 with E mutated to K”, the “depolymerization effect” value in assay [1] is “still has certain depolymerization effect”.
As to “CHD3: SEQ ID NO: 13, REKKEKKTKRRKKGEGDGGQKQVEQKSSATLLLTWGLEDV; mixture of positively and negatively charged residues”, the “depolymerization effect” value in assay [1] is on record as “some depolymerization effect”.
As to “Champ-E: SEQ ID NO: 1, MTEPQEESEEEVEEPEERQQTPEVVPDDSGTFYDQTVSNDLE; charged amphipathic peptide”, in assay [2], the “capable of dissolving protein aggregation” value was “capable of dissolving protein aggregation”.
Consider “GRWD1: SEQ ID NO: 8, SNRLMMLRMHNLHGTKPPPSEGSDEEEEEEDEEDEEERKP; fragment of human protein”, for which, in assay [1], the “depolymerization effect” value was “have depolymerization effect”.
Consider “PELP1: SEQ ID NO: 15, GGPPALEEDLTVININSSDEEEEEEEEEEEEEEEEEEEEE”, for which the “dissolving G3BP1 protein aggregates” value with G3BP1 aggregates (in vitro, FIG. 17) is recorded as “capable of dissolving G3BP1 protein aggregates”.
As for “PLPR3: SEQ ID NO: 6, PMAEEEEEEEDEEEEEEEEEEEDEGPAPPSLYPTVQARPG; fragment of human protein”, in assay [1], the “depolymerization effect” value is listed as “have depolymerization effect”.
“ZNF326: SEQ ID NO: 11, DEPIEEEEDEDEEEEAEEVGEVEEVEEVEEVREGGIEGEG; few or no polar residues”: in assay [1], the “depolymerization effect” value was “almost no depolymerization effect”.
Take ““Champ”-Q: SEQ ID NO: 5, TQPQQQSQQQVQQPQQRQQTPQVVPDDSGTFYDQTVSNDLQ; uncharged variant of Champ-E”: in the assay with G3BP1 aggregates (purified peptide added to in vitro protein solution capable of forming protein aggregates, FIG. 4), the “capability of dissolving protein aggregates in vitro” value is given as “could no longer dissolve protein aggregates; also recorded: no obvious depolymerization effect”.

The values above are taken from patent US20250154207A1, “PEPTIDES FOR DISSOLVING PROTEIN AGGREGATES AND METHODS THEREOF” (REJUKON BIOPHARM INC., priority 2022, published 2025).
